{"source": "patent US20070275977A1", "about": "“N-OXIDES OF PYRIDYLMETHYL -PIPERAZINE AND -PIPERIDINE DERIVATIVES” (priority 2006, published 2007)", "key": {"[1]": {"assay": "Pharmacological profile in vivo (overall statement)", "protocol": "(§1) Lower lip retraction, an in vivo animal model for serotonin 5-HT1A receptor agonistic activity, was measured according to the method described by Berendsen (1989); Apomorphine-induced climbing behaviour in mice, an in vivo animal model for dopamine-D2 receptor antagonistic activity, was determined according to the method described by Costall (1978)."}, "[2]": {"assay": "Brain concentrations in mice after i.v. or p.o. administration, LC-MS", "type": "in vivo", "conditions": "for concentration at 0.17 h / concentration at 0.5 h / concentration at 1 h / concentration at 3 h / concentration at 7 h / concentration at 24 h: mouse, brain, read-out: piperazine-N-ox analyzed in brain", "protocol": "(§2) The LC-MS system consists of 2 Perkin elmer series 200 micro pumps. The pumps were connected to each other by a 50 pI tee mixer, and connected to a Gilson 215 auto sampler. The method was as follows:\n(§3) The auto sampler was connected to a Waters Atlantis C18 30*4.6 mm column with 3 μm particles. The column was thermo stated in a Perkin Elmer series 200 column oven at 40° C. The column was connected to a Perkin Elmer series 200 UV meter with a 2.7 μl flowcel. The wavelength was set to 254 nm. The UV meter was connected to a Sciex API 150EX mass spectrometer. The mass spectrometer had the following parameters: Scanrange:150-900 a.m.u., polarity: positive; scan mode: profile; resolution Q1: UNIT; step size: 0.10 a.m.u.; time per scan: 0.500 sec; NEB: 10; CUR: 10; IS: 5200; TEM: 325; DF: 30; FP: 225 and EP: 10. The light scattering detector was connected to the Sciex API 150. The light scattering detector was a Sedere Sedex 55 operating at 50° C. and 3 bar N2. The complete system was controlled by a G3 powermac.\n(§4) For oral (p.o.) administration: to the desired quantity (0.5-5 mg) of the solid test compound in a glass tube, some glass beads were added and the solid was milled by vortexing for 2 minutes. After addition of 1 ml of a solution of 1% methylcellulose in water and 2% (v/v) of Poloxamer 188 (Lutrol F68), the compound was suspended by vortexing for 10 minutes. The pH was adjusted to 7. Remaining particles in the suspension were further suspended by using an ultrasonic bath.\nFor intravenous (i.v.) administration: compounds were dissolved in physiological saline (0.9% NaCl) and the pH was adjusted to 7.\nData were averaged (n=3), and collected in table 4."}, "Dopamine-D2": {"biological_target": "Dopamine-D2 (Homo sapiens, UniProt P14416)", "sequence (P14416 whole entry)": "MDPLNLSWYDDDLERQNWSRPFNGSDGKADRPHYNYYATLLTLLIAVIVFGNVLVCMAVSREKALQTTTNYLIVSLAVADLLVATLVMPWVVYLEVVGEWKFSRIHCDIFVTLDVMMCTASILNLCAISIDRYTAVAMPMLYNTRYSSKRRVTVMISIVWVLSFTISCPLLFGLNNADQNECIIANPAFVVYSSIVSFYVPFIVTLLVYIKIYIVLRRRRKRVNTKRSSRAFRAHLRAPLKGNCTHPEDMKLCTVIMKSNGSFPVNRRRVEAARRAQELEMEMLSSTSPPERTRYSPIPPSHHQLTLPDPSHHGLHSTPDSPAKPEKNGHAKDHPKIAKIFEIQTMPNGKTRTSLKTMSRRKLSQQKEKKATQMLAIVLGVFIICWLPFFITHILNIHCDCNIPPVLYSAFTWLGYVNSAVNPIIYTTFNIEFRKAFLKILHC", "assay": "In vitro receptor affinity, Dopamine-D2", "type": "binding", "conditions": "radioligand [3H]-spiperone, read-out: K1 (in vitro receptor affinity)", "protocol": "(§5) ln vitro affinity for neurotransmitter receptors: The binding data collected below were either obtained by CE REP (128, rue Danton, 92500 Rueil-Malmaison, France) or at Solvay Pharmaceuticals B.V. (C. J. van Houtenlaan 36, 1381 CP Weesp, The Netherlands), using well documented standard procedures. The affinities for dopamine-D2 and 5-HT1A receptors for instance, were measured as described by Creese (1997) and Gozlan (1983) respectively."}, "[3]": {"assay": "Plasma concentrations in mice after i.v. or p.o. administration, blood analyzed by LC-MS", "type": "in vivo", "conditions": "piperazine-N-oxide administered", "protocol": "as §2, §3\nas §4, with “Remaining particles in the suspension were further suspended by using an ultrasonic bath.” left out"}, "[4]": {"tested_on": "Apomorphine-induced climbing behaviour in mice", "assay": "Antagonism of apomorphine-induced climbing behaviour in mice", "type": "in vivo", "conditions": "Mus musculus, po, read-out: Antagon. apomorphine ind. climbing: ED50", "protocol": "as §4, §1"}, "[5]": {"tested_on": "neurotransmitter receptors", "assay": "Pharmacological profile in vitro (overall statement)", "protocol": "as §5\nIn vitro (ant)agonistic activity at human D2 receptors and 5-HT1A receptors was measured according to the methods described by Solomon (1974) and Weiss (1985) respectively, on the formation of adenylate cyclase in CHO cell-lines expressing these cloned receptors."}, "Serotonin-5-HT1A": {"biological_target": "T1, Serotonin-5-HT1A (Homo sapiens, UniProt P08908)", "T1 sequence (P08908 1-422)": "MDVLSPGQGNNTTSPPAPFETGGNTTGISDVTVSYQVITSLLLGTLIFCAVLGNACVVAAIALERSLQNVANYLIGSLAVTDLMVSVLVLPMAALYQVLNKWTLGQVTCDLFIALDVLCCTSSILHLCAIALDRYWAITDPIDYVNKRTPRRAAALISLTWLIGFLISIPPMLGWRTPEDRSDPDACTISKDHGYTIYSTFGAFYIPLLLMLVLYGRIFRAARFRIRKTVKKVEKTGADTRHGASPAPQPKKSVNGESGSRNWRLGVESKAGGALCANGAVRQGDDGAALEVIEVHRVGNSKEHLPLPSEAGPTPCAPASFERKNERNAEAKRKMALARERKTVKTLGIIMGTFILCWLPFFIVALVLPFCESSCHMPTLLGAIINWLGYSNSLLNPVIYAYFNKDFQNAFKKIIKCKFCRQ", "assay": "In vitro receptor affinity, Serotonin-5-HT1A", "type": "binding", "conditions": "radioligand [3H]-8-OH-DPAT, read-out: K1 (in vitro receptor affinity)", "protocol": "as §5"}, "[6]": {"assay": "Partition coefficient, experimental (Log P)", "type": "physicochemical", "conditions": "at pH 7.0"}, "Lower lip retraction": {"tested_on": "Lower lip retraction", "assay": "Lower lip retraction", "type": "in vivo", "conditions": "po, read-out: Lower Lip Retraction: ED50", "protocol": "as §4, §1"}, "[7]": {"conditions": "iv, 0.5 mg/kg i.v. of administered compound"}, "[8]": {"conditions": "po, 5 mg/kg p.o. of administered compound"}}, "note": "pKi: −log10 of the molar value. “Also recorded” adds a separate entry of the source. Like-named read-outs stand apart in the source and are kept apart here.", "data": [{"compound": "[O-][n+]1cc(C[N+]2([O-])CCN(c3cccc4c3OCCO4)CC2)cc(-c2ccc(F)cc2)c1", "note": "[SLV313-bis-N-oxide, 4-(2,3-dihydro-benzo[1,4]dioxin-5-yl-1-[5-4-fluorophenyl]-1-oxy-pyridin-3-ylmethyl)piperazine-1-oxide]", "values": [{"measurement": "potency relative to corresponding parent molecule, the pyridine N-oxide", "setting": "[1]; stated by analogy", "value": "equipotent"}]}, {"compound": "[O-][N+]1(Cc2cncc(-c3ccc(F)cc3)c2)CCN(c2cccc3c2OCCO3)CC1", "note": "[piperazine N-oxide]", "values": [{"measurement": "detection of administered compound in brain", "setting": "[2]; i.v. or p.o.", "value": "hardly detected in brain"}, {"measurement": "concentration at 0.17 h", "setting": "[2]; [7]", "value": 3.1, "unit": "ng/g"}, {"measurement": "concentration at 0.5 h", "setting": "[2]; [7]", "value": 4.4, "unit": "ng/g"}, {"measurement": "concentration at 1 h", "setting": "[2]; [7]", "value": 0, "unit": "ng/g"}, {"measurement": "concentration at 3 h", "setting": "[2]; [7]", "value": 0, "unit": "ng/g"}, {"measurement": "concentration at 7 h", "setting": "[2]; [7]", "value": 0, "unit": "ng/g"}, {"measurement": "concentration at 24 h", "setting": "[2]; [7]", "value": 0, "unit": "ng/g"}, {"measurement": "concentration at 0.17 h", "setting": "[2]; [8]", "value": 2.9, "unit": "ng/g"}, {"measurement": "concentration at 0.5 h", "setting": "[2]; [8]", "value": 2.6, "unit": "ng/g"}, {"measurement": "concentration at 1 h", "setting": "[2]; [8]", "value": 0, "unit": "ng/g"}, {"measurement": "concentration at 3 h", "setting": "[2]; [8]", "value": 0, "unit": "ng/g"}, {"measurement": "concentration at 7 h", "setting": "[2]; [8]", "value": 0, "unit": "ng/g"}, {"measurement": "concentration at 24 h", "setting": "[2]; [8]", "value": 0, "unit": "ng/g"}, {"measurement": "pKi", "setting": "Dopamine-D2", "value": "< 6.00"}, {"measurement": "time at which plasma concentrations of piperazine-N-oxide and parent molecule cross", "setting": "[3]", "value": "within half an hour"}, {"measurement": "ED50", "setting": "[4]", "value": 0.3, "unit": "mg/kg"}, {"measurement": "pharmacological profile/activity in vitro relative to parent SLV313", "setting": "[5]", "value": "virtually inactive; also recorded: nearly inactive"}, {"measurement": "pKi", "setting": "Serotonin-5-HT1A", "value": 7.60}, {"measurement": "pharmacological profile/potency in vivo relative to SLV313", "setting": "[1]; in vivo", "value": "equipotent"}, {"measurement": "logP", "setting": "[6]", "value": 1.7}, {"measurement": "ED50", "setting": "Lower lip retraction", "value": 10, "unit": "mg/kg"}, {"measurement": "melting point", "value": "181 to 182", "unit": "°C"}]}]}
